Read-outs that look alike come from different tables or passages of the source.

For experiment [1], the system named is carrageenin-induced edema in the hind paw of a rat. The experiment in a line: Carrageenin Assay (carrageenin-induced edema, hind paw). In kind it is in vivo, rat (male, Long Evans strain). Particulars: Rattus norvegicus, 1 h before carrageenin, edema at 3 h, compared to phenylbutazone control values, read-out: % Reduction of Edema. A digest of the protocol: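 Male Long Evans rats (130-200 g) dosed orally 1 h before intraplantar 0.05 ml 1.0 percent carrageenin into left hind paw. Edema volume by water-displacement differential paw volume at 3 h; expressed as percent reduction versus phenylbutazone control.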
(Carrageenan injected into the paw causes an acute inflammation.)

Experiment [2] deals with phenylquinone writhing in mice. The experiment in a line: Phenylquinone Writhing Assay (analgesia). The class given is in vivo, mouse (Carworth CF1 male mice). Particulars: Mus musculus, po, read-out: Phenylquinone Writhing Assay (% Control), percent analgesia; for responders at 15 mg/kg: 15 mg/kg oral. An outline of the steps: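 Male CF1 mice (ten per group) dosed orally in 0.25% methylcellulose, then challenged i.p. with 0.02% phenylquinone at 15, 30, 60 or 120 min post-dose. Mice showing no writhing over 10 min count as protected; percent analgesia = number protected ×10.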
For orientation: An intraperitoneal irritant provokes the stretching counted in writhing tests.

Experiment [3] has as its system central nervous system activity in mice. The experiment in a line: Neuropharmacological Profile. The class given is in vivo, mouse (white male Carworth Farm Strain CF-1). Conditions: 300,100,30,10 mg/kg intraperitoneal. Here is the method:
The central nervous system activity of certain of the preferred compounds in accordance with the present invention were determined using the following neuropharmacological profile assay procedures.
White male mice of the Carworth Farm Strain (CF-1) weighing 18-22 grams were used in these determinations. […] Intraperitoneal injections were administered in logarithmic progression and sequentially. The dose levels employed routinely are 10, 30, 100, and 300 mg/kg, using four male mice at each dose level. Since this test was conducted in a sequential manner, the first dose administered was at 300 mg/kg. The mice were injected at this dose level and observed for gross changes produced by the drug, such as behavioral, neurological, autonomic, and toxic effects.
The animals were observed continuously for one hour and if no signs of pharmacological or toxicological activity were present at the end of the first hour, they were intermittently checked for activity every fifteen minutes thereafter for two consecutive hours. […] Subsequent dose levels below 300 mg/kg were not administered in this case. Alternatively, if demonstrable pharmacological changes occurred within the first three hours after administration of the drug at 300 mg/kg, the subsequent doses were administered and the animals observed for changes in overt behavior. The observation period begins immediately following the injection and the animals are then continuously observed for three hours and intermittently checked thereafter for forty-eight hours. The animals were observed and signs and symptoms of pharmacological activity were recorded continuously until no further symptoms developed and until the symptoms that had appeared were no longer present. […] It was very important that the animals were free to move about for evaluation of spacial orientation, alertness, and spontaneous motor activity. The animals were systematically observed and manipulated to measure the onset, peak effect, duration and character of drug action.
The major characteristics observed relative to central nervous system activity for the compounds indicated are summarized in the following Table IV.

In a further experiment the test system is antihypertensive. Particulars: Burger, Medicinal Chemistry, 3rd Ed., 1027; cited from earlier work.
For experiment [4], the system named is Spontaneously hypertensive rats. The experiment in a line: SHR Assay (anti-hypertensive). In kind it is in vivo, rat (spontaneously hypertensive). Particulars: rat, in vivo. The procedure:
Spontaneously hypertensive rats, 12 to 16 weeks of age, were used in this assay. Systolic blood pressures were determined by the tail cuff method, utilizing capacitance transducers for the detection of pressure, an aneroid manometer for measuring pressure, and an oscilloscope for visualizing the disappearance and/or appearance of the pressure pulse. Heart rate was measured by a biotachometer. Groups of five rats having systolic blood pressures of 170 mmHg or greater were chosen and the test compounds administered at the doses indicated below (oral) as a solution or suspension in 0.25% methylcellulose (MC) at a volume of 5 ml/kg. One group served as the control and received the vehicle. Twenty-four hours after dosing, systolic blood pressure and heart rate were recorded. A second dose of compound was administered and blood pressure and heart rate determined at 4 and 24 hours after the second dose.

In experiment [5] the test system is adjuvant-induced arthritis, hind paw of the rat. The experiment in a line: Adjuvant-Arthritis Assay. The class given is in vivo.
The test system of another experiment is tuberculostatic. Particulars: in vitro (J. Chem. Soc., 1956, 713-16); cited from earlier work.

In the case of `NNc1nncc(-c2ccccc2)n1` [Example 3, 3-hydrazino-5-phenyl-1,2,4-triazine], the inhibition in vivo at 40 mg/kg in experiment [1] (40 mg/kg oral) came out at 55%. The responders at 100 mg/kg in experiment [2] (0.25 h, 100 mg/kg oral, 15 Min.) turned out to be 100%. For the same compound, in experiment [2] (0.5 h, 30 mg/kg oral, 30 Min.), the responders at 30 mg/kg was determined as 30%. In experiment [2] (0.5 h, 70 mg/kg oral, 30 Min.), the responders at 70 mg/kg was 90%. Besides, the “CNS Activity” value in experiment [3] is listed as “Antidepressant”. Moreover, the antihypertensive activity result with antihypertensive is listed as “moderately active antihypertensive agent”.

For `O=C(NNc1nncc(-c2ccccc2)n1)C(F)(F)F` [Example 7, 3-trifluoroacetyl hydrazino-5-phenyl-1,2,4-triazine], the inhibition in vivo at 150 mg/kg in experiment [1] (150 mg/kg oral) turned out to be 41%. Further, the responders at 15 mg/kg in experiment [2] (0.25 h, 15 Min.) came to 50%; in experiment [2] (1 h, 60 Min) it was 10%. Also, the “duration of activity (hypotensive)” value in experiment [4] is recorded as “long duration of activity”. In addition, in experiment [4], the “onset of action (hypotensive)” value is on record as “advantageous rapid onset of action”. Besides, the “Adjuvant-Arthritis Assay (% Reduction)” value in experiment [5] (50 mg/kg oral once daily, Day 3, developing disease) turned out to be 30%; in experiment [5] (50 mg/kg oral once daily, Day 10, developing disease), 30%; in experiment [5] (50 mg/kg oral once daily, Day 17, developing disease) it was 39%; in experiment [5] (50 mg/kg oral, Day 20, established disease) it was 4%; in experiment [5] (50 mg/kg oral, Day 27, established disease), 24%; in experiment [5] (50 mg/kg oral, Day 31, established disease) it was 29%.

As to `Cc1nnc(S)nc1C` [3-mercapto-5,6-dimethyl-1,2,4-triazine], in the experiment on tuberculostatic, the tuberculostatic activity result is “tuberculostatic in vitro”.
